Measurements published in publication PMC8571282 (Nature Communications, 2021).
Values joined by “and” are separate entries in the source; they are usually repeats but may differ in a detail not shown here. Equal values may be shown once. Read-outs that look alike come from different tables or passages of the source.

What was measured:
[1] = Single-dose plasma pharmacokinetics in ferrets; settings: ferret; for plasma concentration of GS-621763: GS-621763 PO 30 mg/kg, 30 mg/kg
[2] = system: “DF2” primary HAE cells (diseased, asthma); settings: 72 h
[3] = Cytotoxicity assay (PrestoBlue), BHK-21; settings: hamster, BHK-21 cells
[4] = GS-441524 and metabolite concentrations in ferret lung tissue; settings: single 30 mg/kg oral GS-621763, 24 h
SARS-CoV-2 WA1/2020 = type: in vivo, ferret (Mustela putorius furo); settings: for Transform of Nasal lavage titer, Mean 2 (treated group) / Transform of Nasal lavage titer, Mean Diff. (Vehicle vs. treated): Fig 3b; for Transform of Nasal lavage titer, Mean 2 (treated group) / Transform of Nasal lavage titer, Mean Diff. (Vehicle vs. treated) / Transform of Nasal Turbinate titer, Mean 2 (treated group) / Transform of Nasal Turbinate titer, Mean Diff. (Vehicle vs. treated): b.i.d.; for Transform of Nasal Turbinate titer, Mean 2 (treated group) / Transform of Nasal Turbinate titer, Mean Diff. (Vehicle vs. treated): Fig 3c; for Transform of Nasal Lavage RNA copies, Mean 2 (treated group) / Transform of Nasal Lavage RNA copies, Mean Diff. (Vehicle vs. treated): Fig 3f

For CC(C)C(=O)OCC1OC(C#N)(c2ccc3c(N)ncnn23)C(OC(=O)C(C)C)C1OC(=O)C(C)C (stereo not shown) [GS-621763], the “oral bioavailability (in words)” value [1] was “excellent oral bioavailability”, the “plasma concentration of GS-621763” value ([1]; 0.25 h) was 9.27 and 11.5 and 13.7 and the “plasma concentration of GS-621763” value ([1]; 1 h) was 5.98 and 3.18 and 4.36. For the same compound, the “plasma GS-621763 (intact prodrug) transiently observed” value ([1]; GS-621763 p.o. 30 mg/kg, first two hours) was “approximately 10 nM”, the “GS-441524 in blood relative to intact prodrug” value ([1]; after oral administration of GS-621763) was “more than three orders of magnitude higher” and the “% cell viability” value ([2]; DF2 HAE, 1.235 µM) was 106%. The “% cell viability” value ([2]; DF2 HAE, 3.704 µM) was 113%, the “% cell viability” value ([2]; DF2 HAE, 33.333 µM) was 114% and the “% cell viability” value ([2]; human, 100 µM) was 5%. The CC50 at 72 h [3] was > 100 µM, the viability at 72 h, 0.046 µM ([3]; % cell viability, BHK-21, 0.046 µM, 72 h) was 76% and the viability at 72 h, 1.235 µM ([3]; % cell viability, BHK-21, 1.235 µM, 72 h) was 90%. For the same compound, the viability at 72 h, 3.704 µM ([3]; % cell viability, BHK-21, 3.704 µM, 72 h) was 90%, the viability at 72 h, 33.333 µM ([3]; % cell viability, BHK-21, 33.333 µM, 72 h) was 91% and the viability at 72 h, 100 µM ([3]; % cell viability, BHK-21, 100 µM, 72 h) was 85%. For the same compound, the “GS-443902 levels in respiratory tissues trailing those of intravenous 10 mg/kg remdesivir” value [4] was “approximately fourfold”, the “Transform of Nasal lavage titer, Mean 2 (treated group)” value (SARS-CoV-2 WA1/2020; Day 0, 3 mg/kg) was 0.699 and the “Transform of Nasal lavage titer, Mean Diff. (Vehicle vs. treated)” value (SARS-CoV-2 WA1/2020; Day 0, 3 mg/kg) was 0. The “Transform of Nasal lavage titer, Mean 2 (treated group)” value (SARS-CoV-2 WA1/2020; Day 0, 10 mg/kg) was 0.699, the “Transform of Nasal lavage titer, Mean Diff. (Vehicle vs. treated)” value (SARS-CoV-2 WA1/2020; Day 0, 10 mg/kg) was 0 and the “Transform of Nasal lavage titer, Mean 2 (treated group)” value (SARS-CoV-2 WA1/2020; Day 0.5, 3 mg/kg) was 2.775. For the same compound, the “Transform of Nasal lavage titer, Mean Diff. (Vehicle vs. treated)” value (SARS-CoV-2 WA1/2020; Day 0.5, 3 mg/kg) was -0.18, the “Transform of Nasal lavage titer, Mean 2 (treated group)” value (SARS-CoV-2 WA1/2020; Day 0.5, 10 mg/kg) was 2.413 and the “Transform of Nasal lavage titer, Mean Diff. (Vehicle vs. treated)” value (SARS-CoV-2 WA1/2020; Day 0.5, 10 mg/kg) was 0.1817. For the same compound, the “Transform of Nasal lavage titer, Mean 2 (treated group)” value (SARS-CoV-2 WA1/2020; Day 1, 3 mg/kg) was 2.834, the “Transform of Nasal lavage titer, Mean Diff. (Vehicle vs. treated)” value (SARS-CoV-2 WA1/2020; Day 1, 3 mg/kg) was 0.8732 and the “Transform of Nasal lavage titer, Mean 2 (treated group)” value (SARS-CoV-2 WA1/2020; Day 1, 10 mg/kg) was 2.126. The “Transform of Nasal lavage titer, Mean Diff. (Vehicle vs. treated)” value (SARS-CoV-2 WA1/2020; Day 1, 10 mg/kg) was 1.581, the “Transform of Nasal lavage titer, Mean 2 (treated group)” value (SARS-CoV-2 WA1/2020; Day 1.5, 3 mg/kg) was 3.42 and the “Transform of Nasal lavage titer, Mean Diff. (Vehicle vs. treated)” value (SARS-CoV-2 WA1/2020; Day 1.5, 3 mg/kg) was 1.236. The “Transform of Nasal lavage titer, Mean 2 (treated group)” value (SARS-CoV-2 WA1/2020; Day 1.5, 10 mg/kg) was 2.277, the “Transform of Nasal lavage titer, Mean Diff. (Vehicle vs. treated)” value (SARS-CoV-2 WA1/2020; Day 1.5, 10 mg/kg) was 2.379 and the “Transform of Nasal lavage titer, Mean 2 (treated group)” value (SARS-CoV-2 WA1/2020; Day 2, 3 mg/kg) was 3.882. The “Transform of Nasal lavage titer, Mean Diff. (Vehicle vs. treated)” value (SARS-CoV-2 WA1/2020; Day 2, 3 mg/kg) was 0.3882, the “Transform of Nasal lavage titer, Mean 2 (treated group)” value (SARS-CoV-2 WA1/2020; Day 2, 10 mg/kg) was 1.369 and the “Transform of Nasal lavage titer, Mean Diff. (Vehicle vs. treated)” value (SARS-CoV-2 WA1/2020; Day 2, 10 mg/kg) was 2.901. The “Transform of Nasal lavage titer, Mean 2 (treated group)” value (SARS-CoV-2 WA1/2020; Day 2.5, 3 mg/kg) was 3.714, the “Transform of Nasal lavage titer, Mean Diff. (Vehicle vs. treated)” value (SARS-CoV-2 WA1/2020; Day 2.5, 3 mg/kg) was 0.4855 and the “Transform of Nasal lavage titer, Mean 2 (treated group)” value (SARS-CoV-2 WA1/2020; Day 2.5, 10 mg/kg) was 1.314. For the same compound, the “Transform of Nasal lavage titer, Mean Diff. (Vehicle vs. treated)” value (SARS-CoV-2 WA1/2020; Day 2.5, 10 mg/kg) was 2.886, the “Transform of Nasal lavage titer, Mean 2 (treated group)” value (SARS-CoV-2 WA1/2020; Day 3, 3 mg/kg) was 3.088 and the “Transform of Nasal lavage titer, Mean Diff. (Vehicle vs. treated)” value (SARS-CoV-2 WA1/2020; Day 3, 3 mg/kg) was 0.713. The “Transform of Nasal lavage titer, Mean 2 (treated group)” value (SARS-CoV-2 WA1/2020; Day 3, 10 mg/kg) was 0.8495, the “Transform of Nasal lavage titer, Mean Diff. (Vehicle vs. treated)” value (SARS-CoV-2 WA1/2020; Day 3, 10 mg/kg) was 2.952 and the “Transform of Nasal lavage titer, Mean 2 (treated group)” value (SARS-CoV-2 WA1/2020; Day 3.5, 3 mg/kg) was 3.452. The “Transform of Nasal lavage titer, Mean Diff. (Vehicle vs. treated)” value (SARS-CoV-2 WA1/2020; Day 3.5, 3 mg/kg) was 0.4247, the “Transform of Nasal lavage titer, Mean 2 (treated group)” value (SARS-CoV-2 WA1/2020; Day 3.5, 10 mg/kg) was 1.758 and the “Transform of Nasal lavage titer, Mean Diff. (Vehicle vs. treated)” value (SARS-CoV-2 WA1/2020; Day 3.5, 10 mg/kg) was 2.118. The “Transform of Nasal lavage titer, Mean 2 (treated group)” value (SARS-CoV-2 WA1/2020; Day 4, 3 mg/kg) was 3.139, the “Transform of Nasal lavage titer, Mean Diff. (Vehicle vs. treated)” value (SARS-CoV-2 WA1/2020; Day 4, 3 mg/kg) was 0.849 and the “Transform of Nasal lavage titer, Mean 2 (treated group)” value (SARS-CoV-2 WA1/2020; Day 4, 10 mg/kg) was 1. The “Transform of Nasal lavage titer, Mean Diff. (Vehicle vs. treated)” value (SARS-CoV-2 WA1/2020; Day 4, 10 mg/kg) was 2.988, the “Transform of Nasal Turbinate titer, Mean 2 (treated group)” value (SARS-CoV-2 WA1/2020; 3 mg/kg) was 4.557 and the “Transform of Nasal Turbinate titer, Mean Diff. (Vehicle vs. treated)” value (SARS-CoV-2 WA1/2020; 3 mg/kg) was 1.366. For the same compound, the “Transform of Nasal Turbinate titer, Mean 2 (treated group)” value (SARS-CoV-2 WA1/2020; 10 mg/kg) was 3.042, the “Transform of Nasal Turbinate titer, Mean Diff. (Vehicle vs. treated)” value (SARS-CoV-2 WA1/2020; 10 mg/kg) was 2.881 and the “Transform of Nasal Lavage RNA copies, Mean 2 (treated group)” value (SARS-CoV-2 WA1/2020; Row 1 (time), 3mg/kg b.i.d.) was 0. For the same compound, the “Transform of Nasal Lavage RNA copies, Mean Diff. (Vehicle vs. treated)” value (SARS-CoV-2 WA1/2020; Row 1 (time), 3mg/kg b.i.d.) was 0, the “Transform of Nasal Lavage RNA copies, Mean 2 (treated group)” value (SARS-CoV-2 WA1/2020; Row 1 (time), 10mg/kg b.i.d.) was 0 and the “Transform of Nasal Lavage RNA copies, Mean Diff. (Vehicle vs. treated)” value (SARS-CoV-2 WA1/2020; Row 1 (time), 10mg/kg b.i.d.) was 0. The “Transform of Nasal Lavage RNA copies, Mean 2 (treated group)” value (SARS-CoV-2 WA1/2020; Row 2 (time), 3mg/kg b.i.d.) was 5.027, the “Transform of Nasal Lavage RNA copies, Mean Diff. (Vehicle vs. treated)” value (SARS-CoV-2 WA1/2020; Row 2 (time), 3mg/kg b.i.d.) was 0.585 and the “Transform of Nasal Lavage RNA copies, Mean 2 (treated group)” value (SARS-CoV-2 WA1/2020; Row 2 (time), 10mg/kg b.i.d.) was 4.315. The “Transform of Nasal Lavage RNA copies, Mean Diff. (Vehicle vs. treated)” value (SARS-CoV-2 WA1/2020; Row 2 (time), 10mg/kg b.i.d.) was 1.297, the “Transform of Nasal Lavage RNA copies, Mean 2 (treated group)” value (SARS-CoV-2 WA1/2020; Row 3 (time), 3mg/kg b.i.d.) was 5.927 and the “Transform of Nasal Lavage RNA copies, Mean Diff. (Vehicle vs. treated)” value (SARS-CoV-2 WA1/2020; Row 3 (time), 3mg/kg b.i.d.) was 0.2134. For the same compound, the “Transform of Nasal Lavage RNA copies, Mean 2 (treated group)” value (SARS-CoV-2 WA1/2020; Row 3 (time), 10mg/kg b.i.d.) was 4.129.
